Tests used:
[1] = Test B: Cytotoxicity Assay; type: cell-based; conditions: human, uninfected MT-4 cells, same protocol as Test A
Method: (§1) MT-4 cells were next mixed with HIV-IIIb at an m.o.i of 0.003 for 1 hour, after which time 35 μL of virus/cell mixture (2000 cells) was immediately added to each well containing 40 μL of diluted compound. The plates were then incubated at 37° C. for 5 days. […] Cell lysis was carried out by incubating at room temperature for 10 min and then chemiluminescence was read.
Test B: Cytotoxicity Assay
Compound cytotoxicity and the corresponding CC50 values was determined using the same protocol as described in the antiviral assay (Test A) except that uninfected cells were used.

HIV-IIIb = assay: Test A: Antiviral Assay in MT4 Cells; type: cell-based, HIV-1; conditions: Human immunodeficiency virus 1, IIIB, MT4, 120 h; for inhibition at 0.2 µM: read-out: % inhibition at 0.2 μM; for inhibition at 2 µM: read-out: % inhibition at 2 μM
Method: Test A: Antiviral Assay in MT4 Cells
as §1

Structure (SMILES)	CC50 at 5 days [1] [µM]	inhibition at 0.2 µM (HIV-IIIb) [%]	inhibition at 2 µM (HIV-IIIb) [%]
Cn1nc(NC(=O)C(C)(C)O)c2c(Cl)ccc(-c3ccc(C#CC(C)(C)O)nc3[C@H](Cc3cc(F)cc(F)c3)NC(=O)Cn3nc(C(F)F)c4c3C(F)(F)[C@@H]3C[C@H]43)c21 [Compound 89, N-(4-chloro-7-(2-((S)-1-(2-((3b-S,4aR)-3-(difluoromethyl)-5,5-difluoro-3b,4,4a,5-tetrahydro-1H-cyclopropa[3,4]cyclopenta[1,2-c]pyrazol-1-yl)acetamido)-2-(3,5-difluorophenyl)ethyl)-6-(3-hydroxy-3-methylbut-1-yn-1-yl)pyridin-3-yl)-1-methyl-1H-indazol-3-yl)-2-hydroxy-2-methylpropanamide]	7.77	95	95
Cn1nc(NS(C)(=O)=O)c2c(Cl)ccc(-c3ccc(C#CC(C)(C)O)nc3[C@H](Cc3cc(F)cc(F)c3)NC(=O)Cn3nc(C(F)F)cc3C(F)F)c21 [Compound 189, (S)-2-(3,5-bis(difluoromethyl)-1H-pyrazol-1-yl)-N-(1-(3-(4 chloro-1-methyl-3-(methylsulfonamido)-1H-indazol-7-yl)-6-(3-hydroxy-3-methylbut-1-yn-1-yl)pyridin-2-yl)-2-(3,5-difluorophenyl)ethyl)acetamide]	17.2	88	88
COCCC(=O)Nc1nn(C)c2c(-c3ccc(C#CC(C)(C)O)nc3[C@H](Cc3cc(F)cc(F)c3)NC(=O)Cn3nc(C(F)F)c4c3C(F)(F)[C@@H]3C[C@H]43)ccc(Cl)c12 [Compound 85, N-(4-chloro-7-(2-((S)-1-(2-((3b-S,4aR)-3-(difluoromethyl)-5,5-difluoro-3b,4,4a,5-tetrahydro-1H-cyclopropa[3,4]cyclopenta[1,2-c]pyrazol-1-yl)acetamido)-2-(3,5-difluorophenyl)ethyl)-6-(3-hydroxy-3-methylbut-1-yn-1-yl)pyridin-3-yl)-1-methyl-1H-indazol-3-yl)-3-methoxypropanamide]	7.85	96	96
Cc1nc(NS(C)(=O)=O)c2cccc(-c3ccc(C#CC(C)(C)O)nc3[C@H](Cc3cc(F)cc(F)c3)NC(=O)Cn3nc(C(F)F)c4c3C(F)(F)[C@@H]3C[C@H]43)n12 [Compound 120H, 2-((3b-S,4aR)-3-(difluoromethyl)-5,5-difluoro-3b,4,4a,5-tetrahydro-1H-cyclopropa[3,4]cyclopenta[1,2-c]pyrazol-1-yl)-N—((S)-2-(3,5-difluorophenyl)-1-(6-(3-hydroxy-3-methylbut-1-yn-1-yl)-3-(3-methyl-1-(methylsulfonamido)imidazo[1,5-a]pyridin-5-yl)pyridin-2-yl)ethyl)acetamide]	11.7	51	88
Cn1nc(N)c2c(C#N)ccc(-c3ccc(C#CC(C)(C)O)nc3[C@H](Cc3cc(F)cc(F)c3)NC(=O)Cn3nc(C(F)F)c4c3C(F)(F)[C@@H]3C[C@H]43)c21 [Compound 77E, N—((S)-1-(3-(3-amino-4-cyano-1-methyl-1H-indazol-7-yl)-6-(3-hydroxy-3-methylbut-1-yn-1-yl)pyridin-2-yl)-2-(3,5-difluorophenyl)ethyl)-2-((3b-S,4aR)-3-(difluoromethyl)-5,5-difluoro-3b,4,4a,5-tetrahydro-1H-cyclopropa[3,4]cyclopenta[1,2-c]pyrazol-1-yl)acetamide]	11.8	96	97
CC(C)(O)C#Cc1ccc(-c2cccc3c(=O)[nH]ccc23)c([C@H](Cc2cc(F)cc(F)c2)NC(=O)Cn2nc(C(F)(F)F)c3c2C(F)(F)[C@@H]2C[C@H]32)n1 [Compound 24B, 2-((3bS,4aR)-5,5-difluoro-3-(trifluoromethyl)-3b,4,4a,5-tetrahydro-1H-cyclopropa[3,4]cyclopenta[1,2-c]pyrazol-1-yl)-N—((S)-2-(3,5-difluorophenyl)-1-(6-(3-hydroxy-3-methylbut-1-yn-1-yl)-3-(1-oxo-1,2-dihydroisoquinolin-5-yl)pyridin-2-yl)ethyl)acetamide]	5.92	78	83
Cc1c(-c2ccc(C#CC(C)(C)O)nc2[C@H](Cc2cc(F)cc(F)c2)NC(=O)Cn2nc(C(F)F)c3c2C(F)(F)[C@@H]2C[C@H]32)ccc2n[nH]c(=O)n12 [Compound 38, 2-((3b-S,4aR)-3-(difluoromethyl)-5,5-difluoro-3b,4,4a,5-tetrahydro-1H-cyclopropa[3,4]cyclopenta[1,2-c]pyrazol-1-yl)-N—((S)-2-(3,5-difluorophenyl)-1-(6-(3-hydroxy-3-methylbut-1-yn-1-yl)-3-(5-methyl-3-oxo-2,3-dihydro-[1,2,4]triazolo[4,3-a]pyridin-6-yl)pyridin-2-yl)ethyl)acetamide]	13.5	96	96
Cn1nc(NS(C)(=O)=O)c2cccc(-c3ccc(C#CC(C)(C)N)nc3[C@H](Cc3cc(F)cc(F)c3)NC(=O)Cn3nc(C(F)(F)F)c4c3C(F)(F)[C@@H]3C[C@H]43)c21 [Compound 104, N—((S)-1-(6-(3-amino-3-methylbut-1-yn-1-yl)-3-(1-methyl-3-(methylsulfonamido)-1H-indazol-7-yl)pyridin-2-yl)-2-(3,5-difluorophenyl)ethyl)-2-((3bS,4aR)-5,5-difluoro-3-(trifluoromethyl)-3b,4,4a,5-tetrahydro-1H-cyclopropa[3,4]cyclopenta[1,2-c]pyrazol-1-yl)acetamide]	7.46	100	100
Cn1nc(N)c2c(Cl)ccc(-c3ccc(C#CC(C)(C)O)nc3[C@H](Cc3cc(F)cc(F)c3)NC(=O)Cn3nc(C(F)(F)F)c4c3C(F)(F)[C@@H]3C[C@H]43)c21 [Compound 55C, N—((S)-1-(3-(3-amino-4-chloro-1-methyl-1H-indazol-7-yl)-6-(3-hydroxy-3-methylbut-1-yn-1-yl)pyridin-2-yl)-2-(3,5-difluorophenyl)ethyl)-2-((3b-S,4aR)-5,5-difluoro-3-(trifluoromethyl)-3b,4,4a,5-tetrahydro-1H-cyclopropa[3,4]cyclopenta[1,2-c]pyrazol-1-yl)acetamide]	9.56	92	92
CC(C)(O)C#Cc1ccc(-c2ccc(Cl)n3c(N)nnc23)c([C@H](Cc2cc(F)cc(F)c2)NC(=O)Cn2nc(C(F)F)c3c2C(F)(F)[C@@H]2C[C@H]32)n1 [Compound 106E, N—((S)-1-(3-(3-amino-5-chloro-[1,2,4]triazolo[4,3-a]pyridin-8-yl)-6-(3-hydroxy-3-methylbut-1-yn-1-yl)pyridin-2-yl)-2-(3,5-difluorophenyl)ethyl)-2-((3b-S,4aR)-3-(difluoromethyl)-5,5-difluoro-3b,4,4a,5-tetrahydro-1H-cyclopropa[3,4]cyclopenta[1,2-c]pyrazol-1-yl)acetamide]	12.4	95	96
Cn1nc(NS(N)(=O)=O)c2c(Cl)ccc(-c3ccc(C#CC(C)(C)O)nc3[C@H](Cc3cc(F)cc(F)c3)NC(=O)Cn3nc(C(F)F)c4c3C(F)(F)[C@@H]3C[C@H]43)c21 [Compound 70, N—((S)-1-(3-(4-chloro-1-methyl-3-(sulfamoylamino)-1H-indazol-7-yl)-6-(3-hydroxy-3-methylbut-1-yn-1-yl)pyridin-2-yl)-2-(3,5-difluorophenyl)ethyl)-2-((3b-S,4aR)-3-(difluoromethyl)-5,5-difluoro-3b,4,4a,5-tetrahydro-1H-cyclopropa[3,4]cyclopenta[1,2-c]pyrazol-1-yl)acetamide]	9.98	94	94
Cn1nc(NS(C)(=O)=O)c2c(Cl)ccc(-c3cc(-c4ccccc4)cnc3[C@H](Cc3cc(F)cc(F)c3)NC(=O)Cn3nc(C(F)F)c4c3C(F)(F)[C@@H]3C[C@H]43)c21 [Compound 177D, N—((S)-1-(3-(4-chloro-1-methyl-3-(methylsulfonamido)-1H-indazol-7-yl)-5-phenylpyridin-2-yl)-2-(3,5-difluorophenyl)ethyl)-2-((3b-S,4aR)-3-(difluoromethyl)-5,5-difluoro-3b,4,4a,5-tetrahydro-1H-cyclopropa[3,4]cyclopenta[1,2-c]pyrazol-1-yl)acetamide]	> 53.2	100	100
Cn1nc(NS(C)(=O)=O)c2c(Cl)ccc(-c3ccc(C#CC(C)(C)O)nc3[C@H](Cc3cc(F)cc(F)c3)NC(=O)Cn3ncc4c3C(F)(F)[C@@H]3C[C@H]43)c21 [Compound 150, N—((S)-1-(3-(4-chloro-1-methyl-3-(methylsulfonamido)-1H-indazol-7-yl)-6-(3-hydroxy-3-methylbut-1-yn-1-yl)pyridin-2-yl)-2-(3,5-difluorophenyl)ethyl)-2-((3bS,4aR)-5,5-difluoro-3b,4,4a,5-tetrahydro-1H-cyclopropa[3,4]cyclopenta[1,2-c]pyrazol-1-yl)acetamide]	28.9	87	87
Cn1nccc1-c1ccc(-c2ccc(Cl)c3c(NS(C)(=O)=O)nn(C)c23)c([C@H](Cc2cc(F)cc(F)c2)NC(=O)Cn2nc(C(F)(F)F)c3c2C(F)(F)[C@@H]2C[C@H]32)n1 [Compound 175, N—((S)-1-(3-(4-chloro-1-methyl-3-(methylsulfonamido)-1H-indazol-7-yl)-6-(1-methyl-1H-pyrazol-5-yl)pyridin-2-yl)-2-(3,5-difluorophenyl)ethyl)-2-((3b-S,4aR)-5,5-difluoro-3-(trifluoromethyl)-3b,4,4a,5-tetrahydro-1H-cyclopropa[3,4]cyclopenta[1,2-c]pyrazol-1-yl)acetamide]	> 46.1	95	95
